The values that follow come from patent US12122736B2, “Salty taste-enhancing agent and manufacturing method therefor, and salty taste-enhancing method” (NISSIN FOODS HOLDINGS CO., LTD., priority 2012, dated 2024).

The nature of experiment [1]: Sensory evaluation of salty taste-enhancing action in salt aqueous solution (Example 1). The conditions noted are these: 0.150 wt % evaluation sample and 0.700 wt % sodium chloride in distilled water; compared with 0.700-0.840 wt % saline. On the procedure:
The salty taste-enhancing action may be evaluated by a sensory test.
Each evaluation sample and sodium chloride (salt) were dissolved in distilled water to prepare an aqueous solution containing 0.150 wt % of the evaluation sample and 0.700 wt % of sodium chloride, which was used as an evaluation solution. In addition, solutions containing 0.700 wt %, 0.735 wt %, 0.770 wt %, 0.805 wt %, and 0.840% of sodium chloride were used as comparative objects.

The nature of experiment [2]: Sensory evaluation of relationship between addition concentration and salty taste-enhancing action (Example 2). The following applies: for Salty taste-enhancing effect: 0.700 wt % sodium chloride. On the procedure: 3-Guanidino-1-propanol hydrochloride obtained in Synthesis Example 2 was evaluated for its relationship between an addition concentration and a salty taste-enhancing action.
3-Guanidino-1-propanol hydrochloride and sodium chloride (salt) were dissolved in distilled water to prepare an aqueous solution containing 1.5 ppm (0.00015 wt %), 15 ppm (0.0015 wt %), 150 ppm (0.015 wt %), or 1,500 ppm (0.15 wt %) of 3-guanidino-1-propanol hydrochloride and 0.700 wt % of sodium chloride, which was used as an evaluation solution. In addition, solutions containing 0.700 wt %, 0.735 wt %, 0.770 wt %, 0.805 wt %, and 0.840 wt % of sodium chloride were used as comparative objects.

Consider `N=C(N)NCCCCCC(=O)O` [6-Guanidinocaproic acid], for which the Salty taste-enhancing effect entry in experiment [1] was “+ (exhibiting a salty taste equal to or stronger than that of 0.735 wt % saline (exhibiting a salty taste-enhancing effect of 5% or more))”.

With `N=C(N)NCCCO` [Example 14], the Salty taste-enhancing effect entry in experiment [1] was “++++ (exhibiting a salty taste equal to or stronger than that of 0.840 wt % saline (exhibiting a salty taste-enhancing effect of 20% or more))”.

Regarding `Cl.N=C(N)N` [Guanidine hydrochloride], the Salty taste-enhancing effect result in experiment [1] is given as “+++ (exhibiting a salty taste equal to or stronger than that of 0.805 wt % saline (exhibiting a salty taste-enhancing effect of 15% or more))”.

On to `Cl.N=C(N)NCCCO` [Synthesis Example 2, 3-Guanidino-1-propanol hydrochloride], for which the “addition concentration at which a salty taste-enhancing action was exhibited” value in experiment [2] (0.700 wt % sodium chloride aqueous solution) is recorded as not below 15 ppm. Moreover, the Salty taste-enhancing effect result was “± (exhibiting a salty taste weaker than that of 0.735 wt % saline (exhibiting a salty taste-enhancing effect of less than 5%))” in experiment [2] (addition concentration 1.5 ppm (0.00015%)), “+ (exhibiting a salty taste equal to or stronger than that of 0.735 wt % saline (exhibiting a salty taste-enhancing effect of 5% or more))” in experiment [2] (addition concentration 15 ppm (0.0015%)), “++ (exhibiting a salty taste equal to or stronger than that of 0.770 wt % saline (exhibiting a salty taste-enhancing effect of 10% or more))” in experiment [2] (addition concentration 150 ppm (0.015%)) and “++++ (exhibiting a salty taste equal to or stronger than that of 0.840 wt % saline (exhibiting a salty taste-enhancing effect of 20% or more))” in experiment [2] (addition concentration 1,500 ppm (0.15%)).

Turning to `N=C(N)NCCC(=O)O` [β-Guanidinopropanoic acid], the Salty taste-enhancing effect result in experiment [1] was “++ (exhibiting a salty taste equal to or stronger than that of 0.770 wt % saline (exhibiting a salty taste-enhancing effect of 10% or more))”.
